Data as given in US12195462B2, “Organic compound” (INTRA-CELLULAR THERAPIES, INC., priority 2018, dated 2025).

Assays:
[1] = Rat PK study of the compound of Example 1; assay type: in vivo
Method: (§1) Surgically modified rats are housed one per cage, and supplied with water and a commercial rodent diet ad libitum prior to study initiation. Food is withheld from the animals for a minimum of twelve hours before and during the study, until four hours post-dose, at which time food is returned. Animals are dosed IV, SC and PO, and blood samples are collected following the study design in the following table. Blood samples (˜0.25 mL) are collected via JVC or tail vein, placed into chilled blood collection tubes containing sodium heparin as the anticoagulant, and kept on ice until centrifugation. Blood samples are then centrifuged at a temperature of 2 to 8° C., at 3,000 g, for 5 minutes. Drug levels in the plasma samples are quantified via HPLC with MS/MS detection. Pharmacokinetic parameters based on the group geomean concentration versus time data, are calculated using a noncompartmental pharmaceutical data analysis software PK Solutions 2.0 (Summit Research Services, Montrose, Colo.).

human D2S receptor [2] = target: T1, human D2S receptor (Homo sapiens (Human), UniProt P14416); experiment: Cell-based functional cAMP assay, antagonist signaling (reversal of quinpirole inhibition)
human D2S receptor [3] = target: T1, human D2S receptor; experiment: Cell-based functional cAMP assay, agonist signaling (inhibition of forskolin-stimulated cAMP)
[4] = Rat PK studies of the compound of Example 3; settings: Study One, IV 1 mg/kg
SERT = SERT (Homo sapiens (Human), UniProt P31645); experiment: Binding, SERT
Mu opiate receptor = Mu opiate receptor (Homo sapiens (Human), UniProt P35372); experiment: Receptor binding, Mu opiate receptor
[5] = system: patients with acute exacerbated schizophrenia; experiment: Clinical studies of patients with acute exacerbated schizophrenia; assay type: in vivo; settings: once daily 60 mg P.O., up to 28 days
Source text: Social avoidance can be a critical and debilitating symptom in patients suffering from anxiety disorders, especially social anxiety disorder, as well as in patients suffering from traumatic anxiety disorders. Social avoidance is often one of the key determinants of whether a person with a severe anxiety disorder is capable of maintaining familial relationships or employment relationships. […] Negative symptoms of schizophrenia can be divided into two categories: emotional experience (e.g., emotional withdrawal, passive social withdrawal, active social avoidance) and emotional expression (e.g., blunted effect, poor rapport, lack of spontaneity, and motor retardation). […] These are the symptoms that are most highly correlated with interpersonal functioning.

[6] = Rat PK study of the compound of Example 2; assay type: in vivo
Method: as §1
This study is performed according to the same procedure as outlined in Example 5a, with the blood samples collected as shown in the table below.

[7] = system: patients with major depressive episodes; settings: 40-minute infusion, total dose 0.5 mg/kg, after 24 hours; cited from earlier work

T1 sequence (P14416 other isoform, or with tags, fused parts or gaps): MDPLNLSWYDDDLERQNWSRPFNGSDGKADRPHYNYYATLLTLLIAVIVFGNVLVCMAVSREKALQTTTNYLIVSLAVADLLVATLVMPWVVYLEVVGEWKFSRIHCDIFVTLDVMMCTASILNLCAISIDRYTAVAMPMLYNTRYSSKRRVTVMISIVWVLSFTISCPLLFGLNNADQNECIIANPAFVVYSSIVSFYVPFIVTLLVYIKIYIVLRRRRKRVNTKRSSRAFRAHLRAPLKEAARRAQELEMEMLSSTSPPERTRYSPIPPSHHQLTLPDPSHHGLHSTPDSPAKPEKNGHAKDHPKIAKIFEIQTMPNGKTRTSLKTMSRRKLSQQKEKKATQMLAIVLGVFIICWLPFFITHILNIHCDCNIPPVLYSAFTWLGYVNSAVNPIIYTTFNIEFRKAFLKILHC
Chain of Mu opiate receptor (P35372 whole entry): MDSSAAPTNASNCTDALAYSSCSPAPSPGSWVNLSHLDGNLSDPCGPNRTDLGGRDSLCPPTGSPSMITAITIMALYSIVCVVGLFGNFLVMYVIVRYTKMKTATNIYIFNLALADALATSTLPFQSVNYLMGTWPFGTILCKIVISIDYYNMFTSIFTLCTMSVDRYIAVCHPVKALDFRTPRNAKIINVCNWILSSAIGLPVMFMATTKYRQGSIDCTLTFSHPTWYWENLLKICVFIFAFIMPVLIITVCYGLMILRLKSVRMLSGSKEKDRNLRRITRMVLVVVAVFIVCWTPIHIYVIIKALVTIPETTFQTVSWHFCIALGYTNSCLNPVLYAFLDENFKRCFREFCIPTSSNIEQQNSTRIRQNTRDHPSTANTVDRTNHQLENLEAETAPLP
Chain of SERT (P31645 whole entry): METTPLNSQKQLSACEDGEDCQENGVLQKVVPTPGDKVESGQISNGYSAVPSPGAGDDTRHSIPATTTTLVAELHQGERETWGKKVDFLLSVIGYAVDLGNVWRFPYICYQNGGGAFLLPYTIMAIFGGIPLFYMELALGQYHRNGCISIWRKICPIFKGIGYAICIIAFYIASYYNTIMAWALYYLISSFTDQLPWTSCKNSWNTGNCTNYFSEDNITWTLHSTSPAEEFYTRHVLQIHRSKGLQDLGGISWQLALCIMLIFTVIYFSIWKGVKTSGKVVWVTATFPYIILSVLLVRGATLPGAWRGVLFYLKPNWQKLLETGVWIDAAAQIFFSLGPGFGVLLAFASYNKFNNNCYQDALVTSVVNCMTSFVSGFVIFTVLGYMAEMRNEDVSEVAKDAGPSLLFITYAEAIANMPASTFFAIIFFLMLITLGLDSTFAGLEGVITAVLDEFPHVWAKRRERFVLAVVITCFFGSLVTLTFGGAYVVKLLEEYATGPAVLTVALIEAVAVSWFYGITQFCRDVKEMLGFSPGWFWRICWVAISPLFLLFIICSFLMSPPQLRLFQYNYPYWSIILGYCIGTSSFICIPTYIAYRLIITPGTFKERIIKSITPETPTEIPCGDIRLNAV

## CN1C(=O)CN2c3c(cccc31)[C@@H]1CN(CCCOc3ccc(F)cc3)CC[C@@H]12 [Compound 1, (6bR,10aS)-8-(3-(4-fluorophenoxy)propyl)-3-methyl-6b,7,8,9,10,10a-hexahydro-1H-pyrido[3′,4′:4,5]pyrrolo[1,2,3-de]quinoxalin-2(3H)-one]
[1]; IV 1 mg/kg
  t-1/2: 1.0 h
[1]; plasma, IV 1 mg/kg
  AUC: 270 ng·h/mL
  Cmax: 505 ng/mL
  bioavailability: 100%
  concentration at 30 min: 116 ng/mL
  concentration at 1 h: 70 ng/mL
  concentration at 6 h: 1.6 ng/mL
[1]; plasma, PO 1 mg/kg
  AUC: 22.6 ng·h/mL
  Cmax: 5 ng/mL
  bioavailability: 10%
  concentration at 30 min: 4.2 ng/mL
  concentration at 1 h: 2.9 ng/mL
  concentration at 6 h: 1.4 ng/mL
[1]; plasma, SC 1 mg/kg
  AUC: 247 ng·h/mL
  Cmax: 34 ng/mL
  bioavailability: 90%
  concentration at 30 min: 23.6 ng/mL
  concentration at 1 h: 28.1 ng/mL
  concentration at 6 h: 12.8 ng/mL
  concentration at 24 h: 1.3 ng/mL
Human D2S receptor [2]
  antagonist activity at the D2S receptor (in words): antagonist activity
Human D2S receptor [3]
  agonist activity at the D2S receptor (in words): no detectable agonist activity
Human D2S receptor [3]; CHO-K1 hD2S, 10 μM forskolin
  Agonist EC50: no activity

## O=C1CN2c3c(cccc3[C@@H]3CN(CCCOc4ccc(F)cc4)CC[C@@H]32)N1 [Formula A, (6bR,10aS)-8-(3-(4-fluorophenoxy)propyl)-6b,7,8,9,10,10a-hexahydro-1H-pyrido[3′,4′:4,5]pyrrolo[1,2,3-de]quinoxalin-2(3H)-one]
[4]
  t-1/2: 1.1 h
SERT
  SERT activity (in words): relatively weak SERT antagonist
Mu opiate receptor
  mu-opiate activity (in words): very strong mu-opiate antagonist

## CN1CCN2c3c(cccc31)[C@@H]1CN(CCCC(=O)c3ccc(F)cc3)CC[C@@H]12 [Formula B, 4-((6bR,10aS)-3-methyl-2,3,6b,9,10,10a-hexahydro-1H-pyrido-[3′,4′:4,5]-pyrrolo[1,2,3-de]quinoxalin-8-(7H)-yl)-1-(4-fluorophenyl)-1-butanone]
[5]
  symptoms of emotional experience compared to placebo: significant and unexpected improvement in symptoms of emotional experience
[6]; IV 1 mg/kg
  t-1/2: 1.4 h
[6]; plasma, IV 1 mg/kg
  AUC: 231 ng·h/mL
  bioavailability: 100%
  concentration at 30 min: 92.5 ng/mL
  concentration at 6 h: 3.1 ng/mL
  concentration at 12 h: 0.5 ng/mL
[6]; plasma, PO 10 mg/kg
  AUC: 56 ng·h/mL
  Cmax: 13.8 ng/mL
  bioavailability: 2%
  concentration at 30 min: 12.2 ng/mL
  concentration at 1 h: 13.8 ng/mL
  concentration at 6 h: 1.5 ng/mL
  concentration at 12 h: 0.3 ng/mL
[6]; plasma, SC 45 mg/kg
  AUC: 7630 ng·h/mL
  Cmax: 747 ng/mL
  bioavailability: 73%
  concentration at 30 min: 705 ng/mL
  concentration at 1 h: 700 ng/mL
  concentration at 6 h: 498 ng/mL
  concentration at 12 h: 168 ng/mL
  concentration at 24 h: 12.3 ng/mL
Rat mPFC slices
  glutamatergic neurotransmission (NMDA and AMPA receptor conductance): enhances glutamatergic neurotransmission
SERT
  SERT activity (in words): very strong SERT antagonist
Mu opiate receptor
  mu-opiate activity (in words): no mu-opiate activity
Mu opiate receptor; Mu opiate receptor, read-out: Ki (nM) or maximum inhibition
  Ki: > 10000 nM

## CNC1(c2ccccc2Cl)CCCCC1=O (centres unmarked) [ketamine]
[7]
  ratings on the Hamilton Depression Rating Scale (HDRS) compared to placebo: significantly improved ratings
